{
  "source": "ChEMBL document CHEMBL5465560",
  "about": "“Selectivity Literature for EUbOPEN Chemogenomic Library” (2024)",
  "key": {"[1]": {"target": "AMP-activated protein kinase (AMPK) alpha-1/beta-1/gamma-1 (Homo sapiens) (UniProt P54619+Q9Y478+Q13131)", "sequence (P54619 whole entry)": "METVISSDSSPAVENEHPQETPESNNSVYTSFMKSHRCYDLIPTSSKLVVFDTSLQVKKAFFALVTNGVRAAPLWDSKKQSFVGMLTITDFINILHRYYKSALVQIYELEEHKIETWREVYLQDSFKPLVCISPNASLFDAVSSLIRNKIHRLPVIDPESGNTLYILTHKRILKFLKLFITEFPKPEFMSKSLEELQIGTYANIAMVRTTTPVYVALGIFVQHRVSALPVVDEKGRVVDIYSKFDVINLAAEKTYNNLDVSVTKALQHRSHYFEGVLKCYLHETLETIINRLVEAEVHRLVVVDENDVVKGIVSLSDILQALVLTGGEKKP", "sequence (Q13131 whole entry partner)": "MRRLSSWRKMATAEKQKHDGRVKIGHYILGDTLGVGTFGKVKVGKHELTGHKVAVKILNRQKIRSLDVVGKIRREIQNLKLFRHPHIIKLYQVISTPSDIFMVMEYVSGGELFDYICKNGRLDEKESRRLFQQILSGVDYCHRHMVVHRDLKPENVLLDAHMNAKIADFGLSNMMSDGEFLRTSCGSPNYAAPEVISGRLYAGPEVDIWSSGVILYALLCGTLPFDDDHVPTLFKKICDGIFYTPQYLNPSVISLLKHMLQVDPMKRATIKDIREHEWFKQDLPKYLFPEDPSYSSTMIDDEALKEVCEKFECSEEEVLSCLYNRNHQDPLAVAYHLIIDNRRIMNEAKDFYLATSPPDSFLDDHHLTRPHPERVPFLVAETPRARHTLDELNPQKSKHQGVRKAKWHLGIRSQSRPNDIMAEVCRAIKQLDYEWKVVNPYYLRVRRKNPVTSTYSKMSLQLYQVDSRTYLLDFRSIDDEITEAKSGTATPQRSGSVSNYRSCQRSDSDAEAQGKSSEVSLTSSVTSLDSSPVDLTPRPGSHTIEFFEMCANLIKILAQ", "sequence (Q9Y478 2-270 partner limits assumed)": "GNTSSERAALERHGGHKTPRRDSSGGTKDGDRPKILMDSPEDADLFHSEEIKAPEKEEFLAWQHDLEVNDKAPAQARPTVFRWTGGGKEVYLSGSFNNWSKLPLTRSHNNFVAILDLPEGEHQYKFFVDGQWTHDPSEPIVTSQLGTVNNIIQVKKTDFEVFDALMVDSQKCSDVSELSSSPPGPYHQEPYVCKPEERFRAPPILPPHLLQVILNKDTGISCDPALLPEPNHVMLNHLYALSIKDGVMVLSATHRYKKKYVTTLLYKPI", "assay": "(§1) Selectivity interaction (SelectScreen profiling (Invitrogen)) EUB0000607a PRKAA1", "type": "protein-complex assay", "conditions": "at 2 µM"}, "[2]": {"target": "AMPK alpha2/beta1/gamma1 (Homo sapiens) (UniProt P54646+P54619+Q9Y478)", "sequence (P54619 whole entry partner)": "as the sequence (P54619 whole entry) above", "sequence (P54646 whole entry)": "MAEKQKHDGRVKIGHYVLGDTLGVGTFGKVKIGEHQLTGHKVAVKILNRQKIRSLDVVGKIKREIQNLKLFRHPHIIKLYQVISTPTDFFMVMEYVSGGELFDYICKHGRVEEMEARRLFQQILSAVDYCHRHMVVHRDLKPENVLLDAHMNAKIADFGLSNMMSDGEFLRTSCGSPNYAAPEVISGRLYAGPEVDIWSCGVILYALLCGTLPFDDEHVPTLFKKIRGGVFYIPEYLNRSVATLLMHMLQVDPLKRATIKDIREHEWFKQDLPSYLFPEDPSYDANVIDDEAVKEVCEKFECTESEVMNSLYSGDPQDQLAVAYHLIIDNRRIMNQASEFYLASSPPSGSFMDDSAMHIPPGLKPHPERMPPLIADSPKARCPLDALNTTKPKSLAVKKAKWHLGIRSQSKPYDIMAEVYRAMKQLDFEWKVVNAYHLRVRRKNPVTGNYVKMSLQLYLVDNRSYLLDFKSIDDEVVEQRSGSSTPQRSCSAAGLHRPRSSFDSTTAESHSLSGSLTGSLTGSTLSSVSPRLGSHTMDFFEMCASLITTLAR", "sequence (Q9Y478 2-270 partner limits assumed)": "as the sequence (Q9Y478 2-270 partner limits assumed) above", "assay": "as §1", "type": "protein-complex assay", "conditions": "at 2 µM"}, "[3]": {"target": "Serine/threonine-protein kinase 10 (Homo sapiens) (UniProt O94804)", "sequence (O94804 whole entry, looked up)": "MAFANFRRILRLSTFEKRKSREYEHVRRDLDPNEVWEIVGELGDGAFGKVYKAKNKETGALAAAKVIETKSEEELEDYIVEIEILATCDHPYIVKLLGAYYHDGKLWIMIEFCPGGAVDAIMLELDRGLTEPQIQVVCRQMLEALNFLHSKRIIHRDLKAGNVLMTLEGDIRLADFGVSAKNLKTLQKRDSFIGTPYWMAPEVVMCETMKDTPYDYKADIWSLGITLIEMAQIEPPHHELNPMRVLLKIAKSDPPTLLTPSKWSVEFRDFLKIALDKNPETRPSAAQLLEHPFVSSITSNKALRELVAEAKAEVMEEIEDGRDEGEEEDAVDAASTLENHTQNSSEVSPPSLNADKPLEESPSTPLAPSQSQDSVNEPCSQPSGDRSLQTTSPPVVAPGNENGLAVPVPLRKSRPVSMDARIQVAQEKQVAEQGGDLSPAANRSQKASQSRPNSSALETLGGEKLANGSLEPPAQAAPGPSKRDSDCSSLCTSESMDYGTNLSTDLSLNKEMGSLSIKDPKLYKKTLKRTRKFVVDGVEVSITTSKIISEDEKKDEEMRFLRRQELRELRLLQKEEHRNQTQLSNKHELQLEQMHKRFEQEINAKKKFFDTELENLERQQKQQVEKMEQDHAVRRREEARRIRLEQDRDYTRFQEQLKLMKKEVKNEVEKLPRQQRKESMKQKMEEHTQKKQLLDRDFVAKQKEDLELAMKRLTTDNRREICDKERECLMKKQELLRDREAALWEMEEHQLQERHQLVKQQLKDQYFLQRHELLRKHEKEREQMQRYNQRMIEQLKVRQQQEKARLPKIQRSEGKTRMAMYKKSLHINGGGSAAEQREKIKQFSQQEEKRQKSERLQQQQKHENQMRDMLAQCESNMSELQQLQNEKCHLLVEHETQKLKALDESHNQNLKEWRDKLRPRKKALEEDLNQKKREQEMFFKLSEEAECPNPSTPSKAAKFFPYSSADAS", "assay": "Selectivity interaction (KinomeScan (DiscoverX)) EUB0000607a STK10", "conditions": "at 10 µM"}, "[4]": {"target": "T1, Serine/threonine-protein kinase TAO1 (Homo sapiens) (UniProt Q7L7X3)", "T1 sequence (whole entry)": "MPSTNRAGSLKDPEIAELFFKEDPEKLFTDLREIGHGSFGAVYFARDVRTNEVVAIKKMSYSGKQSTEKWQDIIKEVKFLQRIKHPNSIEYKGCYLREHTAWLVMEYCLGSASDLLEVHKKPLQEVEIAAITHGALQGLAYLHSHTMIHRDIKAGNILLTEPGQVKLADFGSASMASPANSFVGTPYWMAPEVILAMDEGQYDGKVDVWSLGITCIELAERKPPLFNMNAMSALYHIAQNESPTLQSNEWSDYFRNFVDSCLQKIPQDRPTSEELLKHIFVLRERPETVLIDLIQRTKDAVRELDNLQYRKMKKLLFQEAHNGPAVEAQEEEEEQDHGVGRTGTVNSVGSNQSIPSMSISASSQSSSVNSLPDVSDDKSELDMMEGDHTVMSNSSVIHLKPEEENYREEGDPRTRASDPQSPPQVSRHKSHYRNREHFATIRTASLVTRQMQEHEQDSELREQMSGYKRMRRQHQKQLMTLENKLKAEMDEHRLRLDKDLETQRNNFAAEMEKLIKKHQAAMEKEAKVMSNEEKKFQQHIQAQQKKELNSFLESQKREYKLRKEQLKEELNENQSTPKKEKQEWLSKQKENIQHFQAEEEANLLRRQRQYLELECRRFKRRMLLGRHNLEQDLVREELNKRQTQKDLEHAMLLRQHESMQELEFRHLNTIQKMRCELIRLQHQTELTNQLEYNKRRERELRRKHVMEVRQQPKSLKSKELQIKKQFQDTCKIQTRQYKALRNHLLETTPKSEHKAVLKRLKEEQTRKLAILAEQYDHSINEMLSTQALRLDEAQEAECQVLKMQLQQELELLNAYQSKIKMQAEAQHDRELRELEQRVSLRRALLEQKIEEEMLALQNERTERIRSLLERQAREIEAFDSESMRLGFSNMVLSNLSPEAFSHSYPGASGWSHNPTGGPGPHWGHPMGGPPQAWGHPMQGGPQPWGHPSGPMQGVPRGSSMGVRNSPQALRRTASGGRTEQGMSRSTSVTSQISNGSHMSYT", "assay": "Selectivity interaction (KinomeScan (DiscoverX)) EUB0000045b TAOK1"}, "[5]": {"target": "T2, Dual specificity mitogen-activated protein kinase kinase 4 (Homo sapiens) (UniProt P45985)", "T2 sequence (whole entry)": "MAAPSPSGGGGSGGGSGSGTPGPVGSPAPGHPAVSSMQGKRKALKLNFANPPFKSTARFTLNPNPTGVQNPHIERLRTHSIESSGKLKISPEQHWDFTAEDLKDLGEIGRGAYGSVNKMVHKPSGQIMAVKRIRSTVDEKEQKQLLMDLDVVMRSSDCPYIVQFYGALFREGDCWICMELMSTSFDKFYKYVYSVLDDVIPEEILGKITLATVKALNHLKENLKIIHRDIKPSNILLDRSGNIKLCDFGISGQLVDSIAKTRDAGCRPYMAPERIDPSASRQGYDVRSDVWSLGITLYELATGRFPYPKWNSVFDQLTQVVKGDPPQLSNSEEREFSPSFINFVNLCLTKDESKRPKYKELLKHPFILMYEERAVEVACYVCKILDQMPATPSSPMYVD", "assay": "Selectivity interaction (Kinase panel (KiNativ target engagement assay in Jurkat cells)) EUB0001635a MAP2K4", "type": "cell-based", "conditions": "at 1 µM"}, "[6]": {"target": "T3, Protein kinase C epsilon type (Homo sapiens) (UniProt Q02156)", "T3 sequence (whole entry)": "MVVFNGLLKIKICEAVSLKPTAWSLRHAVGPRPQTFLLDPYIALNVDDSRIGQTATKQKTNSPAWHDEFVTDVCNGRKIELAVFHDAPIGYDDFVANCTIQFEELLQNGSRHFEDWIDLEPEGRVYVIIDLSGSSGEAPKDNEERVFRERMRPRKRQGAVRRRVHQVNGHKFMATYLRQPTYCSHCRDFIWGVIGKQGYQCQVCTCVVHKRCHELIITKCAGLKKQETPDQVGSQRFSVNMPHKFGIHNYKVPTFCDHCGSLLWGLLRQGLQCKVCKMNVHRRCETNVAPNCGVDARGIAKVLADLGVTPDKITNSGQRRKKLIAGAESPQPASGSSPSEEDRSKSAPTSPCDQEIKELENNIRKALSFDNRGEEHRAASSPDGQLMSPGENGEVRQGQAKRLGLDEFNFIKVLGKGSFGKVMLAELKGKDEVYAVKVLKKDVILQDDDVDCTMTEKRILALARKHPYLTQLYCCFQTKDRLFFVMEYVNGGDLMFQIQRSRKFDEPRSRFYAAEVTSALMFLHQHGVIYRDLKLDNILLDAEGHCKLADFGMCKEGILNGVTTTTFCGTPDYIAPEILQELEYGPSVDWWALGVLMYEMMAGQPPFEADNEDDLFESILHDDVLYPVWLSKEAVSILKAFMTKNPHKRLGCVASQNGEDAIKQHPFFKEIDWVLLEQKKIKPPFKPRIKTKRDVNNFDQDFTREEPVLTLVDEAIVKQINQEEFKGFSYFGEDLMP", "conditions": "at 10 µM"}, "[7]": {"tested_on": "Epidermal growth factor receptor (Homo sapiens), P00533 [G719C]", "sequence (P00533 whole entry G719C)": "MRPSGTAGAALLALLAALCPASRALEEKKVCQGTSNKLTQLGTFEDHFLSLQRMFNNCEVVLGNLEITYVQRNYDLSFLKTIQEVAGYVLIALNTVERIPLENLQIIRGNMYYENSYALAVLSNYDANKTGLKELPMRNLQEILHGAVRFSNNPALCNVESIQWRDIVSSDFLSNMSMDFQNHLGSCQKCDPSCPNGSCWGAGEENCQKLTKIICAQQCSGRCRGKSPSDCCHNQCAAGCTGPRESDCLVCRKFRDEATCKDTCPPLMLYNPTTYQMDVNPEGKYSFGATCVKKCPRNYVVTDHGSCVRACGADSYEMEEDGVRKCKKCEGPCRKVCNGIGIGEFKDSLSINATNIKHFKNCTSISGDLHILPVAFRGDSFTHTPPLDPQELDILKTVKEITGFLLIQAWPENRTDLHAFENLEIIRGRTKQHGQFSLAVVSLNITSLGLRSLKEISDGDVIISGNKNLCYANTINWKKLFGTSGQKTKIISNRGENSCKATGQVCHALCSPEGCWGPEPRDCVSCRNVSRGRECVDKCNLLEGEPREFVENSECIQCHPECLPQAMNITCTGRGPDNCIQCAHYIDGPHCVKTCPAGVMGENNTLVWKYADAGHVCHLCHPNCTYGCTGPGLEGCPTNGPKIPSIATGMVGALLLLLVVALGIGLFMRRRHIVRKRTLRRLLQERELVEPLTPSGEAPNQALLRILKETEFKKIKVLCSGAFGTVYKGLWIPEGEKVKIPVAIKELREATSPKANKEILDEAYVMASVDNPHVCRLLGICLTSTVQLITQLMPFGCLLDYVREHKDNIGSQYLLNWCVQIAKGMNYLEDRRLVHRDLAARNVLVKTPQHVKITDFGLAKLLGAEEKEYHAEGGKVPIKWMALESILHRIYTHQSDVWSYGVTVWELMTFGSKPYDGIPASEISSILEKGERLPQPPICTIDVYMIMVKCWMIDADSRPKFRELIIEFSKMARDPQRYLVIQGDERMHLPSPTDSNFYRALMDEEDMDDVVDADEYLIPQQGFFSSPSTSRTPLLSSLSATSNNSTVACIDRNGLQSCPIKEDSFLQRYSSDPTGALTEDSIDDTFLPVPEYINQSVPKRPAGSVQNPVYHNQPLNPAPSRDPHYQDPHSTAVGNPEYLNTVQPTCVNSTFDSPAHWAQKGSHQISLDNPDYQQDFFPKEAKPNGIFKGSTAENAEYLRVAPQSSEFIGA", "conditions": "at 10 µM"}, "[8]": {"target": "Bone morphogenetic protein receptor type-1A (Homo sapiens, UniProt P36894)", "sequence (P36894 whole entry)": "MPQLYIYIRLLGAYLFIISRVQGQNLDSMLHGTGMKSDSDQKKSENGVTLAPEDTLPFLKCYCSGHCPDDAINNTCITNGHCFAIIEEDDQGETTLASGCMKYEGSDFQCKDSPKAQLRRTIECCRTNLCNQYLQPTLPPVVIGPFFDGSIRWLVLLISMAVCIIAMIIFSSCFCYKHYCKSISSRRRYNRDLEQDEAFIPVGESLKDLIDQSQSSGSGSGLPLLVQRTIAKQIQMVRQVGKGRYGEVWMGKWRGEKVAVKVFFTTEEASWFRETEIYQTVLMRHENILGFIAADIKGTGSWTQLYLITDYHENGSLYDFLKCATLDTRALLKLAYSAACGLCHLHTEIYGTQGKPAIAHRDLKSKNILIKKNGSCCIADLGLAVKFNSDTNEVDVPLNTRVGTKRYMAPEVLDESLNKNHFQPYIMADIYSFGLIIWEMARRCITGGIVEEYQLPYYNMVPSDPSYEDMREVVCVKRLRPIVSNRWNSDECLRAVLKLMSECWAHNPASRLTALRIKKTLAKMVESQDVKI", "assay": "Selectivity interaction (KinomeScan (DiscoverX)) EUB0001619a BMPR1A", "conditions": "at 1 µM"}},
  "data": [
    {"smiles": "CNC(=O)Nc1ccc(-c2nc(N3CC4CCC(C3)O4)c3cnn(C4CCC5(CC4)OCCO5)c3n2)cc1", "values": [
      {"measurement": "% of inhibition", "setting": "[1]", "value": 5, "unit": "%"},
      {"measurement": "% of inhibition", "setting": "[2]", "value": 7, "unit": "%"},
      {"measurement": "% of control", "setting": "[3]", "value": 99, "unit": "%"}
    ]},
    {"smiles": "C=CC(=O)Nc1cc(-n2c(=O)ccc3cnc4ccc(-c5ccc(NS(C)(=O)=O)cc5)cc4c32)ccc1C", "values": [
      {"measurement": "% of control", "setting": "[4]; at 1 µM", "value": 100, "unit": "%"},
      {"measurement": "% of control", "setting": "[4]; at 10 µM", "value": 79, "unit": "%"}
    ]},
    {"smiles": "C=CC(=O)Nc1ccc(C(=O)Nc2[nH]nc3c2CN(C(=O)N[C@H](CN(C)C)c2ccccc2)C3(C)C)cc1", "values": [
      {"measurement": "% of engagement", "setting": "[5]", "value": 3.9, "unit": "%"}
    ]},
    {"smiles": "Cc1cc([C@@H](C)Nc2ccccc2C(=O)O)c2nc(N3CCOCC3)cc(=O)n2c1", "note": "[AZD-6482]", "values": [
      {"measurement": "% of control", "setting": "[6]", "value": 100, "unit": "%"},
      {"measurement": "% of control", "setting": "[7]", "value": 95, "unit": "%"}
    ]},
    {"smiles": "N#Cc1cccc(-c2c[nH]c3ncnc(N4CCOCC4)c23)c1", "values": [
      {"measurement": "% of control", "setting": "[8]", "value": 98, "unit": "%"}
    ]}
  ]
}
